Results on six compounds are retold here after patent publication US20230414794A1, “PSMA INHIBITOR, COMPOUND AND APPLICATION” (PEKING UNIVERSITY FIRST HOSPITAL, priority 2019, published 2023).

Assay [1] has as its target PSMA (Homo sapiens (Human), UniProt Q04609). Description: PSMA inhibitory activity (NAAG hydrolysis by LNCaP cell lysate, Amplex Red glutamate detection). The format is biochemical. Conditions: for Ki / inhibition at 6.667 µM: LNCaP cell lysate; for Ki: NAAG substrate, Ki by Cheng-Prusoff equation; for inhibition at 6.667 µM: inhibitor 6667 nM, read-out: % inhibited at 6667 nM. Here is the method: A LNCaP cell lysate (total protein concentration: 125 μg/mL) was prepared in advance. 25 μL of the cell lysate, 25 μL of the inhibitor and 25 μL of N-acetylaspartylglutamate (NAAG, 16 μM) were incubated together in a 96-well plate (Costar Assay Plate, Cat#. 3925) at 37° C. for 180 min. The amount of glutamate released by hydrolysis of NAAG was measured using an Amplex Red Glutamic Acid Kit (Molecular Probes Inc., Eugene, OR) working solution (50 μL) after incubation for 30 min Fluorescence were measured using Synergy H1 Hybrid Reader (BioTek Instruments, Inc., Winooski, Vermont) at excitation wavelength of 530 nm and emission wavelength of 590 nm. An inhibition curve was plotted by a semi-logarithmic method. […] The inhibition constant (Ki) of the enzyme was calculated by the Cheng-Prusof equation. Each experiment was performed in triplicates. Data analysis was performed by GraphPad Prism 7.0 (GraphPad Software, San Diego, California).

The target of assay [2] is PSMA (LNCaP cells) (Homo sapiens (Human), UniProt Q04609). Briefly: Fluorescence microscopy imaging of LNCaP cells stained with Compound S1, with or without Compound S2. It counts as cell-based. The following applies: room temperature. The procedure:
LNCaP cells were diluted to 1×10^6/mL with RPMI-1640 (containing 10% FBS). For staining, the cells and 2 μM Compound S1 were incubated at room temperature for 1 h. For the inhibition group, the cells were incubated with 2 μM Compound S1 and 200 μM Compound S2 together for 1 h at room temperature. After the staining was completed, excess dye compound was removed by centrifugation, and the cells were resuspended in cold PBS and blown well, 100 μL of which was taken and added to a 96-well plate, left for several minutes and then observed under a fluorescence microscope.

Assay [3] addresses PSMA (LNCaP cells with high PSMA expression) (Homo sapiens (Human), UniProt Q04609). Briefly: Flow cytometric analysis: inhibition of YC-36 staining of LNCaP cells. The format is cell-based. Conditions: 2 μM YC-36 plus 200 μM Compound S2 (100×), 1 h, room temperature, flow cytometry. Here is the method:
LNCaP cells were diluted to 1×10^6/mL with RPMI-1640 (containing 10% FBS). For staining, the cells and 2 μM YC-36 were incubated at room temperature for 1 h, and then washed twice with the same medium. The cells were resuspended in cold PBS. For the inhibition group, the cells were incubated with 2 μM YC-36 and 200 μM Compound S2 for 1 hour at room temperature. The cells were analyzed by BD Influs Cell Sorter (BD Biosciences, San Jose, CA95131, USA) flow cytometry and the FlowJo software, and the results are shown in FIG. 6. The black area (left in Panel A) represents the LNCaP cells without dye, and the blue area (right in Panel A) represents the LNCaP cells after co-incubation with YC-36.
YC-36 is a fluorescent molecule having a high affinity for PSMA, and can selectively stain cells with high PSMA expression (Kiess, A.P., et al., Auger Radiopharmaceutical Therapy Targeting Prostate […]. J Nucl Med, 2015. 56(9): p. 1401-1407).

PSMA, sequence (Q04609 whole entry): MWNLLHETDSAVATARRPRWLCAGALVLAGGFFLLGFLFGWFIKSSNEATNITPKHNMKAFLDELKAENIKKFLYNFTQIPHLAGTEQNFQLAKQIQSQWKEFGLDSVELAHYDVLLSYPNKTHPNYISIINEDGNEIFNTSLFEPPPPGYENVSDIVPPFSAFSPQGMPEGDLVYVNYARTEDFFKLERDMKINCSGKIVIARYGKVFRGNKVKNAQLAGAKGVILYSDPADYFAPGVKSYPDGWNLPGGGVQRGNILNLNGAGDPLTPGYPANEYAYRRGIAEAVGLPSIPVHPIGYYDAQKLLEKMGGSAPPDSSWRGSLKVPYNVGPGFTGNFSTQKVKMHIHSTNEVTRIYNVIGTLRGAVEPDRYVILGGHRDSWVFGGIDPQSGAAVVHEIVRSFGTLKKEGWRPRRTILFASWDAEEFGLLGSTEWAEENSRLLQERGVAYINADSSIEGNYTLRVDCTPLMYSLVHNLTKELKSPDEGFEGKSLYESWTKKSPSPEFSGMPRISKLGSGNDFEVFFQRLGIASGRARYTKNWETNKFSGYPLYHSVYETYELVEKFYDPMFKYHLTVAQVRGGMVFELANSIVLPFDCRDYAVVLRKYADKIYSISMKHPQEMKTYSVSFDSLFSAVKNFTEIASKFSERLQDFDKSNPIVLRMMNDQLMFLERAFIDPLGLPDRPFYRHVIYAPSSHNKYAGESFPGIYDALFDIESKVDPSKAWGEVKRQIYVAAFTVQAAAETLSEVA
PSMA (LNCaP cells), sequence (Q04609 whole entry): as above
PSMA (LNCaP cells with high PSMA expression), sequence (Q04609 whole entry): as above

In the case of `CC(C)C[C@H](NC(=O)N[C@@H](CNC(=O)C(=O)O)C(=O)O)C(=O)O` [Compound S3, (S)-2-(3-((S)-1-carboxy-2-(carboxyformamido)ethyl)ureido)-4-methylpentanoic acid], the Ki (as a rule, the equilibrium dissociation constant of an inhibitor or competing ligand from its target) in assay [1] came out at 5.69 nM.
Take `CC(C)C[C@H](NC(=O)N[C@@H](CNC(=O)c1c[nH]cn1)C(=O)O)C(=O)O` [Comparative Compound DS2, (S)-2-(3-((S)-1-carboxy-2-(1H-imidazole-4-carboxamido)ethyl)ureido)-4-methylpentanoic acid]: in assay [1], the Ki is more than 1000 nM and the inhibition at 6.667 µM was determined as 20.6%.
Taken in the same sequence, the figures for `CC(C)C[C@H](NC(=O)N[C@@H](CNC(=O)c1c[nH]nn1)C(=O)O)C(=O)O` [Comparative Compound DS3, (S)-2-(3-((S)-1-carboxy-2-(1H-1,2,3-triazole-4-carboxamido)ethyl)ureido)-4-methylpentanoic acid] were more than 1000 nM and 47.3%.
Take `Nc1ccc2c(CC(=O)NCCCC[C@H](NC(=O)N[C@@H](CNC(=O)C(=O)O)C(=O)O)C(=O)O)cc(=O)oc2c1` [Compound S1, (45,85)-15-(7-amino-2-oxo-2H-chromen-4-yl)-1,6,14-trioxo-2,5,7,13-tetraazapentadecane-1,4,8-tricarboxylic acid]: the “staining of LNCaP cells” value in assay [2] (2 μM Compound S1, 1 h) is “stained the cells by specific binding to PSMA”. Also, the Ki in assay [1] was 5.96 nM.
For `CC(C)C[C@H](NC(=O)N[C@@H](CNC(=O)c1ncc[nH]1)C(=O)O)C(=O)O` [Comparative Compound DS1, (S)-2-(3-((S)-1-carboxy-2-(1H-imidazole-2-carboxamido)ethyl)ureido)-4-methylpentanoic acid], in assay [1], the Ki is more than 1000 nM and the inhibition at 6.667 µM is 10.7%.
In the case of `O=C(N[C@@H](CCCCNC(=O)c1ccc(I)cc1)C(=O)O)N[C@@H](CNC(=O)C(=O)O)C(=O)O` [Compound S2, (45,85)-14-(4-iodophenyl)-1,6,14-trioxo-2,5,7,13-tetraazatetradecane-1,4,8-tric arboxylic acid], in assay [3], the “inhibition of staining of LNCaP cells by YC-36” value was “significantly inhibited”. For the same compound, the “inhibition of staining of LNCaP cells by the blue dye Compound S1” value in assay [2] (2 μM Compound S1 plus 200 μM Compound S2 (100×), 1 h) is reported as “significantly inhibit”. Also, the Ki in assay [1] is 0.08 nM. In addition, the “affinity relative to ZJ-43” value in assay [1] (fold higher affinity than ZJ-43, from Ki in Table 1) stood at 44 times.
